The text below walks through data of paper PMC5859192, “Mechanisms underlying the lack of endogenous processing and CLIP-mediated binding of the invariant chain by HLA-DP^84Gly” (Scientific Reports, 2018).

The target of test [1] is T1, DP4^84DEAV87 (substitution mutant of DPB1*04:01 with DPA1*01:03) expressed on K562 cells (Homo sapiens, UniProt P04440+P20036, G113D/G114E/M116V/P115A).
T1 construct: expressed in transfected cells; host or cells: K562 (human erythroleukemic cells without endogenous MHC class II, Ii or HLA-DM), retrovirally transduced, pMX vector
T1 sequence (P20036 29-260): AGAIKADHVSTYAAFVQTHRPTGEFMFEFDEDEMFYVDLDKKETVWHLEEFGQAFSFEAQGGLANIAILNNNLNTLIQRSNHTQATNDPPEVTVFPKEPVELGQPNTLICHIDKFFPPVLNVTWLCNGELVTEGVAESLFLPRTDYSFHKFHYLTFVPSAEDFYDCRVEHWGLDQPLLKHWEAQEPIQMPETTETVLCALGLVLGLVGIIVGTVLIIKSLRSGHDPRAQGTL
T1 sequence (P04440 30-258 G113D/G114E/P115A/M116V): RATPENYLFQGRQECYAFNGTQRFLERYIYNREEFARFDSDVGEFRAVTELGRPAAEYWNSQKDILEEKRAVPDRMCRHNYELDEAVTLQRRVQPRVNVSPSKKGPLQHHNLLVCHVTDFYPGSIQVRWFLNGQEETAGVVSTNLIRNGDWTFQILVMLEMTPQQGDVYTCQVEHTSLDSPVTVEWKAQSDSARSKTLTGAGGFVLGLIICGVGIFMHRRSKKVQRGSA
Briefly: cell-based. In kind it is binding.

In test [2] the target is T2, HLA-DP4 (DPA1*01:03/DPB1*04:01) expressed on K562 cells (Homo sapiens, UniProt P04440+P20036).
T2 construct: expressed in transfected cells; host or cells: K562 (human erythroleukemic cells without endogenous MHC class II, Ii or HLA-DM), retrovirally transduced, pMX vector
T2 sequence (P20036 29-260): T1 sequence (P20036 29-260)
T2 sequence (P04440 30-258): T1 sequence (P04440 30-258 G113D/G114E/P115A/M116V) with D84G, E85G, A86P, V87M
Briefly: cell-based. In kind it is binding.

Where a chain is given by its changes, count along the chain named. Where “and” joins values, the source holds several entries; their conditions need not be identical. Equal entries are not always repeated. Ends that are not written are not given here.

On to “KKLLTQHFVQENYLEY [MAGE-A3_243–258, reference compound]”, for which the IC50 stood at 33.7 µM in test [1] and 28.7 µM in test [2].
For the sequence LPKPPKPVSKMRMATPLLMQALPM [CLIP], the IC50 in test [1] is 6 µM; in test [2], 12.2 µM and 14.7 µM.
“NLRMKLPKPPKPVSKMRMATPLLMQALPM [N-extended CLIP]” gave an IC50 in test [2] of 29.8 µM.
For the sequence “LPKPPKPVSKMRMATPLLMQALPMGALPQ [C-extended CLIP]”, the IC50 in test [2] was 15.3 µM.
